The assay has as its target T1, Androgen Receptor of Rat's Prostate (Rattus norvegicus, UniProt P15207).
T1 construct: Their prostates were removed, weighed and homogenized at 0° C; from tissue; host or cells: prostate cytosol (105,000 g supernatant) of castrated male Sprague-Dawley rats
T1 sequence (P15207 1-902): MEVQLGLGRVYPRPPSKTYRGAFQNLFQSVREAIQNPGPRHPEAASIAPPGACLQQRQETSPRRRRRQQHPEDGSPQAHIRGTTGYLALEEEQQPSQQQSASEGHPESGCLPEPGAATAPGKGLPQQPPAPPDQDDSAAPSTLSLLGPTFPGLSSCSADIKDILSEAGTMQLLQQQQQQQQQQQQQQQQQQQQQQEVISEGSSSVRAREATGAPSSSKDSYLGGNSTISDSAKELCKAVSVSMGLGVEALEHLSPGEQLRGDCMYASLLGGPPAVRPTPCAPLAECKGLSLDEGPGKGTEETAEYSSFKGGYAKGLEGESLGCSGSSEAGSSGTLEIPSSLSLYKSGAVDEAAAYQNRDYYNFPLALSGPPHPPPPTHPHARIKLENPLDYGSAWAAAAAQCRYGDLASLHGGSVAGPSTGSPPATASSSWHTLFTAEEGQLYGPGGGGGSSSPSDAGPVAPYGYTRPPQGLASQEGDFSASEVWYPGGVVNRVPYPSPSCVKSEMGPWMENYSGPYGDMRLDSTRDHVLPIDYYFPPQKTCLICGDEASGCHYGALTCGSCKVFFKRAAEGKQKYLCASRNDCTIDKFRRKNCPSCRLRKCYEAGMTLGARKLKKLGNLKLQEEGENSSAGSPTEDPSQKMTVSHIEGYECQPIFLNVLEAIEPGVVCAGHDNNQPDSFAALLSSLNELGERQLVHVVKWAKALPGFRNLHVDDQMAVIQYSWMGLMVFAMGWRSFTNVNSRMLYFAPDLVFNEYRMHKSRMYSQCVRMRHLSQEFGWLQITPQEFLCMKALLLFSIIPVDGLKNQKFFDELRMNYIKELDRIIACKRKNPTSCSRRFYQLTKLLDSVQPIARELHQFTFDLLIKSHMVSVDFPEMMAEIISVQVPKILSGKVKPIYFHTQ
Briefly: Relative affinity of the bond, androgen receptor (tritiated testosterone displacement). The assay is classed as binding. Conditions: for Relative affinity of the bond (RAB), Androgen, 0.5 H: incubation 0.5 H at 0° C.; for Relative affinity of the bond (RAB), Androgen, 0.5 H / Relative affinity of the bond (RAB), Androgen, 25 H: RAB=100(CH)/(CX); for Relative affinity of the bond (RAB), Androgen, 25 H: incubation 25 H at 0° C. On the procedure:
Androgen Receptor of Rat's Prostate:
Male Sprague Dawley EPOS rats weighing 160 to 200 g were castrated and 24 hours after the castration, the animals were killed. Their prostates were removed, weighed and homogenized at 0° C. using a Potter teflon-glass in a TS buffered solution (Tris 10 mM, saccharose 0.25 M, HCl pH 7.4) (1 g of tissue for 5 ml of TS). The homogenate was ultracentrifuged (105,000 g for 60 minutes) at 0° C. and aliquots of the supernatant were incubated at 0° C. for an incubation time E with a constant concentration (T) of tritiated testosterone in the presence of increasing concentrations (0-1000.10^−9 M) either of cold testosterone or of the product to be tested. The concentration of bound tritiated testosterone (B) was then measured in each incubate by the adsorption on dextran carbon technique.
Calculation of the Relative Affinty of the Bond
The calculation of the Relative Affinity of the Bond (RAB) was identical for all the receptors. The following 2 curves were traced; the percentage of the bound tritiated hormone [formula]
was a function of the logarithm of the concentration of the cold reference hormone and [formula]
as a function of the logarithm of the concentration of the cold product tested.
One determined the straight line of the equation [formula]
The intersections of the straight line I50 and of the curves make it possible to evaluate the concentrations of the cold reference hormone (CH) and of the tested cold product (CX) which inhibit to an extend of 50% the binding of the tritiated hormone upon the receptor. The relative affinity of the bond (RAB) of the tested product is determined by the equation

As to `CCCCN(C)C(=O)CCCCCCCCCC[C@H]1C[C@]2(C)[C@@H](O)CC[C@H]2[C@@H]2CCc3cc(O)ccc3[C@@H]12` [Example 13, N-Butyl-3,17β-Dihydroxy-N-Methyl-11β-Δ^1,3,5(10)-Estratriene-Undecanamide], the “Relative affinity of the bond (RAB), Androgen, 0.5 H” value (shortened to “Relative affinity … 0.5 H”) worked out at 0 and the “Relative affinity of the bond (RAB), Androgen, 25 H” value (“Relative affinity … 25 H” for short) worked out at 0.12.

Turning to `CC(C)N(C)C(=O)CCCCCCCCCC[C@H]1C[C@]2(C)[C@@H](O)CC[C@H]2[C@@H]2CCc3cc(O)ccc3[C@@H]12` [Example 16, 3,17β-dihydroxy-N-methyl-N-isopropyl-11β-Δ^1,3,5(10)-estratriene undecanamide], the “Relative affinity … 0.5 H” value is 0 and the “Relative affinity … 25 H” value was determined as 0.4.

Take `CN(Cc1ccccc1)C(=O)CCCCCCCCCC[C@H]1C[C@]2(C)[C@@H](O)CC[C@H]2[C@@H]2CCC3=CC(=O)CCC3=C12` [Example 17, N-benzyl-17β-hydroxy-N-methyl-3-oxo-11β-Δ^4,9-estradiene undecanamide]: the “Relative affinity … 0.5 H” value is reported as 0.12 and the “Relative affinity … 25 H” value worked out at 1.2.

On to `CN(C)CCN(C)C(=O)CCCCCCCCCC[C@H]1C[C@]2(C)[C@@H](O)CC[C@H]2[C@@H]2CCC3=CC(=O)CCC3=C12` [Example 19, N-[2-(dimethylamino)-ethyl]-17β-hydroxy-N-methyl-3-oxo-11β-Δ^4,9-estradiene undecanamide], for which the “affinity for the androgen receptor” value is “moderate affinity”; the “Relative affinity … 0.5 H” value is reported as 11; the “Relative affinity … 25 H” value is 11.

Take `CC#C[C@]1(O)CC[C@H]2[C@@H]3CCC4=CC(=O)CCC4=C3[C@@H](CCCCCCCCCCC(=O)NCCCC)C[C@@]21C` [Example 22, N-butyl-17β-hydroxy-3-oxo-17α-(1-propynyl)-11β-Δ^4,9-estradiene undecanamide]: the “Relative affinity … 0.5 H” value stood at 0.0 and the “Relative affinity … 25 H” value is on record as 0.

Take `CCCCN(C)C(=O)CCCCCCCCCCC[C@H]1C[C@]2(C)[C@@H](O)CC[C@H]2[C@@H]2CCc3cc(O)ccc3[C@@H]12` [Example 24, N-butyl-3,17β-dihydroxy-N-methyl-11β-Δ^1,3,5(10)-estratriene dodecanamide]: the “Relative affinity … 0.5 H” value stood at 0 and the “Relative affinity … 25 H” value was determined as 0.4.

For the molecule “N-butyl-3,17β-dihydroxy-N-methyl-19-nor-11β-Δ^1,3,5(10)-pregnatrien-20-yn undecanamide [Example 21]”, the “Relative affinity … 0.5 H” value came to 0 and the “Relative affinity … 25 H” value is on record as 0.

Values taken from US6790971B1, “19-Nor-steroids” (Aventis Pharma S.A., priority 1989, dated 2004).
